Measurements reported in ChEMBL document CHEMBL3758169, “4-Aminoindazolyl-dihydrofuro[3,4-d]pyrimidines as non-covalent inhibitors of mutant epidermal growth factor receptor tyrosine kinase” (Bioorg Med Chem Lett, 2016).
≈ marks a conversion by molar mass, not a printed value. Blank lines part the entries; values can stand above or below the molecule they belong to.

What was measured:
[1] = molecular target: T1, Epidermal growth factor receptor (Homo sapiens, UniProt P00533, L858R/T790M); assay: Inhibition of EGFR T790M/L858R mutant (unknown origin); assay type: protein assay
T1 sequence (P00533 25-1210 T790M/L858R limits assumed): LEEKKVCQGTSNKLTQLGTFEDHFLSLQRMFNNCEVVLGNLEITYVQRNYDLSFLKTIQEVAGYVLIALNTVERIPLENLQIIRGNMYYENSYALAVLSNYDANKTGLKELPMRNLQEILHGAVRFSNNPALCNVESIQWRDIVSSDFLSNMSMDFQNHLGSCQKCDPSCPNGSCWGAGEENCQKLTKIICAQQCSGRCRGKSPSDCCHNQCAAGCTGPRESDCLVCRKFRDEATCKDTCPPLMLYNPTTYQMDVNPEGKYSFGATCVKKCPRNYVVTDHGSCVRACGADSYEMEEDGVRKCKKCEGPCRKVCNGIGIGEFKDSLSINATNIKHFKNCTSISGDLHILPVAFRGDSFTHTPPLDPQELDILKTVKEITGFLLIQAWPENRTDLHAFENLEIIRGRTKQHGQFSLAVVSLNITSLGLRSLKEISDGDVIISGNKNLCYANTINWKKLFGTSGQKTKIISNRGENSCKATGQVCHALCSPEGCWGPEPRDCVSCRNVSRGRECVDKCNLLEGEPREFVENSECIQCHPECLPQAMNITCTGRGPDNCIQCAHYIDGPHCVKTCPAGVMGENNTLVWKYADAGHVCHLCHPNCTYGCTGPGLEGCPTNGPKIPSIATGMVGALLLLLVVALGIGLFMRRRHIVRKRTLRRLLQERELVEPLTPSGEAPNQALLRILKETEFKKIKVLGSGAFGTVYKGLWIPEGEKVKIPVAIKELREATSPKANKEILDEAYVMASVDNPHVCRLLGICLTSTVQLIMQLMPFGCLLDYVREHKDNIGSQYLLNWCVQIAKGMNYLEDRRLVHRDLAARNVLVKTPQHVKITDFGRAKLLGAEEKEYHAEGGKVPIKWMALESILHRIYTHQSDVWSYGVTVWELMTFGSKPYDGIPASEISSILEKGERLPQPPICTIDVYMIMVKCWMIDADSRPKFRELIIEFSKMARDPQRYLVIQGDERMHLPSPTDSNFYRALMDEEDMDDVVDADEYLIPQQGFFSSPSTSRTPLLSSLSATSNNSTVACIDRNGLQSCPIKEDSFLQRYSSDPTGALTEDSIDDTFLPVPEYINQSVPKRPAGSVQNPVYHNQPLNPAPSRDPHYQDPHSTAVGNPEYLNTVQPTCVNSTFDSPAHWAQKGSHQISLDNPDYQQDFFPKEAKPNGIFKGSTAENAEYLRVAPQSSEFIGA

[2] = Volume of distribution at steady state in rat; assay type: ADME, organism-based; conditions: in vivo, read-out: Vdss
[3] = tested on: Hepatocyte; assay: Drug metabolism in human hepatocytes assessed as glucuronidation; assay type: ADME, cell-based
[4] = tested on: Hepatocyte; assay: Drug metabolism in rat hepatocytes assessed as glucuronidation; assay type: ADME, cell-based
[5] = Plasma clearance in iv dosed rat; assay type: ADME, organism-based
[6] = molecular target: CDK2/Cyclin A2 (Homo sapiens) (UniProt P24941+P20248); assay: Inhibition of CDK2/cyclinA (unknown origin) at 1000 nM; assay type: protein-complex assay
[7] = Kinetic solubility of compound; assay type: physicochemical; conditions: read-out: Kinetic_solubility
[8] = molecular target: Mitogen-activated protein kinase 1 (Homo sapiens) (UniProt P28482); assay: Inhibition of ERK2 (unknown origin) at 1000 nM
[9] = molecular target: Dual specificity mitogen-activated protein kinase kinase 1 (Homo sapiens) (UniProt Q02750); assay: Inhibition of MEK1 (unknown origin) at 1000 nM
[10] = molecular target: Receptor tyrosine-protein kinase erbB-2 (Homo sapiens) (UniProt P04626); assay: Inhibition of ERBB2 (unknown origin) at 1000 nM
[11] = molecular target: Vascular endothelial growth factor receptor 2 (Homo sapiens) (UniProt P35968); assay: Inhibition of KDR (unknown origin) at 1000 nM
[12] = molecular target: Receptor-type tyrosine-protein kinase FLT3 (Homo sapiens) (UniProt P36888); assay: Inhibition of FLT3 (unknown origin) at 1000 nM
[13] = tested on: Rattus norvegicus; assay: Unbound AUC in rat at 5 mg/kg, po; assay type: ADME, organism-based; conditions: in vivo
[14] = molecular target: T1, Epidermal growth factor receptor; assay: Inhibition of EGFR T790M/L858R mutant autophosphorylation in human H1975 cells; assay type: cell-based
[15] = molecular target: T2, Epidermal growth factor receptor (Homo sapiens, UniProt P00533); assay: Inhibition of wild type EGFR (unknown origin)
Target sequence in this assay (P00533 whole entry): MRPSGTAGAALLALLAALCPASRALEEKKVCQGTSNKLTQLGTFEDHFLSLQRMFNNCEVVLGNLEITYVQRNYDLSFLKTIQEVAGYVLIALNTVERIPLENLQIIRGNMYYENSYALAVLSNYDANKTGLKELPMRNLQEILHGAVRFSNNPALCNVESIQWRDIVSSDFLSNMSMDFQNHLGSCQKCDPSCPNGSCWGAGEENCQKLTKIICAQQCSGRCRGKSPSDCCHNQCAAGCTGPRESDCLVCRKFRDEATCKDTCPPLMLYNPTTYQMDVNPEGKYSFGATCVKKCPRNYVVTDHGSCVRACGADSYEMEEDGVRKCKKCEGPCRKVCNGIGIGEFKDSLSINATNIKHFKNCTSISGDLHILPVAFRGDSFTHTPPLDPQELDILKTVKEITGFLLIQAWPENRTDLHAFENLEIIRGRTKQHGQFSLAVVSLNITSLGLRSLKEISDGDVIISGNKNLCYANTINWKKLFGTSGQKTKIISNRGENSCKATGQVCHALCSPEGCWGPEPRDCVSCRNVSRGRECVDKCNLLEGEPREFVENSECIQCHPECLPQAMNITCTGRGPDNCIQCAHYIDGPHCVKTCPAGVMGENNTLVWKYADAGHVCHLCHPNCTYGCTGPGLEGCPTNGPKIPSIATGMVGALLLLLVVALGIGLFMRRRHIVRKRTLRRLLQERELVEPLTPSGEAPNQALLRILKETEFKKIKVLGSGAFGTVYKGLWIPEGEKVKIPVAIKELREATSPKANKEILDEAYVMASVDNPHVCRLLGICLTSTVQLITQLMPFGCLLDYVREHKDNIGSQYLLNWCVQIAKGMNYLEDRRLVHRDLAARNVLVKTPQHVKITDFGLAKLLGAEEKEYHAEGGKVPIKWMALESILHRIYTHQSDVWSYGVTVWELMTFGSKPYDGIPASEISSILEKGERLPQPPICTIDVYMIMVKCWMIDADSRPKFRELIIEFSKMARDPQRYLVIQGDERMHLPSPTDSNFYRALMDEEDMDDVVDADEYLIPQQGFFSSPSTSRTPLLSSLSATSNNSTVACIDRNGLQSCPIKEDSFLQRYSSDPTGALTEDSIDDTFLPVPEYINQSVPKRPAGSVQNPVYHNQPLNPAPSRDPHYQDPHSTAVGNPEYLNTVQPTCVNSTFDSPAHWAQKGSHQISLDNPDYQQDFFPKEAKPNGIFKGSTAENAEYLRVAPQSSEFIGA

[16] = molecular target: Proto-oncogene tyrosine-protein kinase Src (Homo sapiens) (UniProt P12931); assay: Inhibition of SRC (unknown origin) at 1000 nM
[17] = tested on: RAF proto-oncogene serine/threonine-protein kinase (Homo sapiens), P04049 [Y340D,Y341D]; assay: Inhibition of RAF1 Y340D/Y341D double mutant (unknown origin) at 1000 nM
[18] = molecular target: T2, Epidermal growth factor receptor; assay: Inhibition of EGFR deletion (746 to 750 residues) mutant (unknown origin); assay type: protein assay
Target sequence in this assay (P00533 25-1210 limits assumed, change not shown): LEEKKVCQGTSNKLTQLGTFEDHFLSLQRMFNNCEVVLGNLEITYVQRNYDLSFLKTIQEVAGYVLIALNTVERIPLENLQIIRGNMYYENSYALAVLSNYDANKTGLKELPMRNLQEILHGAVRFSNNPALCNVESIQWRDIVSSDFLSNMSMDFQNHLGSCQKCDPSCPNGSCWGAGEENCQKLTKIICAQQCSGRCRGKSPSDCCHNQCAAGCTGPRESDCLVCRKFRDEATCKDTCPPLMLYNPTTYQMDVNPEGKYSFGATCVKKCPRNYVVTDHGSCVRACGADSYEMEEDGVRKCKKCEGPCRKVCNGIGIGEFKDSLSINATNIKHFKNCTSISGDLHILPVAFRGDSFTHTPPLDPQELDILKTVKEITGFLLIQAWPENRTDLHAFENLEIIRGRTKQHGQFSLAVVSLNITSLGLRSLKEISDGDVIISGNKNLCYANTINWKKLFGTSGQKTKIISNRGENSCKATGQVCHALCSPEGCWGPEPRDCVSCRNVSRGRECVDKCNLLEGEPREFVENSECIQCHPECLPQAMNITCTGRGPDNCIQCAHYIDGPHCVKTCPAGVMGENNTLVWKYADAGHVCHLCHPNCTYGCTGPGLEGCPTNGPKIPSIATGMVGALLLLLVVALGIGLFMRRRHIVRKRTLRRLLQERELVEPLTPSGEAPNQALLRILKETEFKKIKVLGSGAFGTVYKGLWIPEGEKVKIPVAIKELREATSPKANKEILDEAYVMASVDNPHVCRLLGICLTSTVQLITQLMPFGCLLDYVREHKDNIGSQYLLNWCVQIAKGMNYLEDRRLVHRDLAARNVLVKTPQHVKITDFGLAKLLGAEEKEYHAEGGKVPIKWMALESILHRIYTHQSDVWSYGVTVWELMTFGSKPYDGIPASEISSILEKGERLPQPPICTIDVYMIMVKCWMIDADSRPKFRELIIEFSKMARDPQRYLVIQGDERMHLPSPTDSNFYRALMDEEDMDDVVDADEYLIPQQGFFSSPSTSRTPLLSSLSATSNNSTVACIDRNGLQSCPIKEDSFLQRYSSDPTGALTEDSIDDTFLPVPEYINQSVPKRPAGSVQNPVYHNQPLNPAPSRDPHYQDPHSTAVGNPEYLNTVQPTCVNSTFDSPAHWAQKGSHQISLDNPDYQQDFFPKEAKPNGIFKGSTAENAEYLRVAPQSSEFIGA

[19] = molecular target: Receptor tyrosine-protein kinase erbB-4 (Homo sapiens) (UniProt Q15303); assay: Inhibition of ERBB4 (unknown origin) at 1000 nM
[20] = Drug excretion in iv dosed rat urine assessed as glucuronide metabolite; assay type: ADME, organism-based; conditions: in vivo
[21] = tested on: Epidermal growth factor receptor (Homo sapiens), P00533 [L858R,T790M]; assay: Inhibition of EGFR T790M/L858R double mutant (unknown origin) at 1000 nM; assay type: protein assay
[22] = Total AUC in rat at 5 mg/kg, po; assay type: ADME, organism-based; design: dose 5 mg/kg, time AUCmax, route oral; conditions: in vivo
[23] = molecular target: Epidermal growth factor receptor (Homo sapiens, UniProt P00533, L858R); assay: Inhibition of EGFR L858R mutant (unknown origin); assay type: protein assay
Chain of Epidermal growth factor receptor (Homo sapiens, UniProt P00533, L858R) (P00533 25-1210 L858R limits assumed): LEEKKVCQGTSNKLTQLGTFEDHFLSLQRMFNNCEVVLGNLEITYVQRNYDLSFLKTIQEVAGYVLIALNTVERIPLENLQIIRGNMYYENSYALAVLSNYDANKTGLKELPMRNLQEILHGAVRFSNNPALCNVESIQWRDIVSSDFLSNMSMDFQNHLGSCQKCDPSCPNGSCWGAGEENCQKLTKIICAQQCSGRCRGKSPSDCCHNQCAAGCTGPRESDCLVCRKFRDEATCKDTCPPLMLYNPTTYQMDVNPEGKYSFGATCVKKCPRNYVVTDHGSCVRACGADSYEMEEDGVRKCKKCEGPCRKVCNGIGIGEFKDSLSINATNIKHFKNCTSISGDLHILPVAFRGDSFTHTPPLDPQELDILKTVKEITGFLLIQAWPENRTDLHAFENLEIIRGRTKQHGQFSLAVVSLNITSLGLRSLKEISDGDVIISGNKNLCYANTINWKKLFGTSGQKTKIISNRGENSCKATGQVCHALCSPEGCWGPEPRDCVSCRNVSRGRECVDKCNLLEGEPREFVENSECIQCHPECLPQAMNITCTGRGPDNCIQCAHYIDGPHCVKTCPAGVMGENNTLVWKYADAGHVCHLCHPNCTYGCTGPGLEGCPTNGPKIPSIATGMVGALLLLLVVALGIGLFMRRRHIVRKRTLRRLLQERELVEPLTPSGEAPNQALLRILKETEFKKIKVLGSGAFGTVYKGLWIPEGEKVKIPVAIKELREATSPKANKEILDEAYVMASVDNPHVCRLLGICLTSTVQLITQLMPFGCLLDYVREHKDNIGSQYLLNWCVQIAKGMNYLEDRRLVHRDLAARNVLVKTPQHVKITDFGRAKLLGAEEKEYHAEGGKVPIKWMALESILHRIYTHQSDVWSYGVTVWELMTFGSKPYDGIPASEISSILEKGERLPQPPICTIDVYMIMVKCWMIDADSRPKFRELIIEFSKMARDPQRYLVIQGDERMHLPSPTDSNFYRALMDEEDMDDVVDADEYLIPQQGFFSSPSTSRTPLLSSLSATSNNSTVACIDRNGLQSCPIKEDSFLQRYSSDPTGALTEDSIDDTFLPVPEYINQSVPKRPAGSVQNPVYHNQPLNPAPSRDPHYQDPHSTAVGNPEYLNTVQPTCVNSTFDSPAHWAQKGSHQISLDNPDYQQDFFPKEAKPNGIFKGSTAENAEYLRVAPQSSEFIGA

[24] = Drug excretion in iv dosed rat bile assessed as oxidative metabolite; assay type: ADME, organism-based; conditions: in vivo
[25] = Efflux ratio of permeability from basolateral to apical side over apical to basolateral side in MDCK cells; assay type: ADME, cell-based, Canis lupus familiaris; conditions: dog
[26] = Drug excretion in iv dosed rat bile assessed as glucuronide metabolite; assay type: ADME, organism-based; conditions: in vivo
[27] = Oral bioavailability in rat at 5 mg/kg; assay type: ADME, organism-based; conditions: in vivo
[28] = Apparent permeability from the apical to basolateral side in MDCK cells; assay type: ADME, cell-based, Canis lupus familiaris; conditions: dog
[29] = Drug excretion in iv dosed rat urine assessed as oxidative metabolite; assay type: ADME, organism-based; conditions: in vivo
[30] = molecular target: Tyrosine-protein kinase Lck (Homo sapiens) (UniProt P06239); assay: Inhibition of LCK (unknown origin) at 1000 Nm
[31] = molecular target: T3, Inhibitor of nuclear factor kappa-B kinase subunit epsilon (Homo sapiens) (UniProt Q14164); assay: Inhibition of IKKepsilon (unknown origin) at 1000 nM
T3 sequence (whole entry): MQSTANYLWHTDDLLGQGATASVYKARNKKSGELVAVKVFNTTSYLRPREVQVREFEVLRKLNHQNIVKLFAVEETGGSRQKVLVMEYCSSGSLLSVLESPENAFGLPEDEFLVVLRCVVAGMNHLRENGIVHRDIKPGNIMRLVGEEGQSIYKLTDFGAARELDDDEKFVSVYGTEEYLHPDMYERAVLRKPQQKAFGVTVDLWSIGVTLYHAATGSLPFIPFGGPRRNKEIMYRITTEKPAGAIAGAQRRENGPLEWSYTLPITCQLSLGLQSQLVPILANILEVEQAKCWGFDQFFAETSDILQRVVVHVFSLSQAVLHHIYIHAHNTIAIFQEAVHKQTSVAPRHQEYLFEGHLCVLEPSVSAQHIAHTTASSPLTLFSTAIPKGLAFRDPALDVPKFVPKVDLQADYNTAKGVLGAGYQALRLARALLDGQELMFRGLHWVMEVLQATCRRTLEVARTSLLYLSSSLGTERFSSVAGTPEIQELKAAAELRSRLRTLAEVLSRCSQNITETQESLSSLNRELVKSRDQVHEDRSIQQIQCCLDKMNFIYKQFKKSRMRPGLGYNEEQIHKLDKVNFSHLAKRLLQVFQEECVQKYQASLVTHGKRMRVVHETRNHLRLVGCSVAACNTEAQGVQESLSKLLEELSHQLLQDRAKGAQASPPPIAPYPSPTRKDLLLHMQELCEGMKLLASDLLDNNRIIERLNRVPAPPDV

[32] = molecular target: High affinity nerve growth factor receptor (Homo sapiens) (UniProt P04629); assay: Inhibition of TRKA (unknown origin) at 1000 nM
[33] = molecular target: Tyrosine-protein kinase JAK2 (Homo sapiens) (UniProt O60674); assay: Inhibition of JAK2 (unknown origin) at 1000 nM
[34] = molecular target: T2, Epidermal growth factor receptor; assay: Inhibition of EGFR T790M/deletion (746 to 750 residues) mutant (unknown origin); assay type: protein assay
Target sequence in this assay (P00533 25-1210 limits assumed, change not shown): as the sequence (P00533 25-1210 limits assumed, change not shown) above

[35] = molecular target: Ribosomal protein S6 kinase beta-1 (Homo sapiens) (UniProt P23443); assay: Inhibition of p70S6K(unknown origin) at 1000 nM
[36] = molecular target: Serine/threonine-protein kinase Chk1 (Homo sapiens) (UniProt O14757); assay: Inhibition of CHK1 (unknown origin) at 1000 nM
[37] = molecular target: Aurora kinase B (Homo sapiens) (UniProt Q96GD4); assay: Inhibition of Aurora B (unknown origin) at 1000 nM

Ki [1]: > 2000 nM
SMILES: CC1(C)OCc2c(Nc3n[nH]c4ccncc34)nc(-c3cn[nH]c3)nc21

Ki [1]: 22.4 nM
SMILES: CC1(C)OCc2c(Nc3n[nH]c4cc(Cl)ccc34)nc(-c3cn[nH]c3)nc21

Ki [1]: 844 nM
SMILES: Cc1cc(Nc2nc(-c3cn[nH]c3)nc3c2COC3(C)C)n[nH]1

Ki [1]: 747 nM
SMILES: CC1(C)OCc2c(Nc3nsc4ccccc34)nc(-c3cn[nH]c3)nc21

Ki [1]: 175 nM
SMILES: CC1(C)OCc2c(Nc3n[nH]c4ccccc34)nc(-c3cc[nH]n3)nc21

Ki [1]: 85 nM
SMILES: CC1(C)OCc2c(Oc3n[nH]c4ccccc34)nc(-c3cn[nH]c3)nc21

Ki [1]: > 2000 nM
SMILES: CC1(C)OCc2c(Nc3nc4ccccc4s3)nc(-c3cn[nH]c3)nc21

Ki [1]: 17 nM
SMILES: CC1(C)OCc2c(Nc3n[nH]c4cccc(F)c34)nc(-c3cn[nH]c3)nc21

Ki [1]: 5.6 nM
SMILES: CC1(C)OCc2c(Nc3n[nH]c4ccccc34)nc(-c3cscn3)nc21

Ki [1]: 2 nM
SMILES: CC1(C)OCc2c(Nc3n[nH]c4cc(F)ccc34)nc(-c3cn[nH]c3)nc21

Ki [1]: 17 nM
SMILES: CC1(C)OCc2c(Nc3c[nH]c4ccccc34)nc(-c3cn[nH]c3)nc21

Ki [1]: 389 nM
SMILES: CC1(C)OCc2c(Nc3n[nH]c(Cl)c3Cl)nc(-c3cn[nH]c3)nc21

Ki [1]: 519 nM
SMILES: CN(c1nc(-c2cn[nH]c2)nc2c1COC2(C)C)c1n[nH]c2ccccc12

Ki [1]: 732 nM
SMILES: CC1(C)OCc2c(Nc3n[nH]c4ccccc34)nc(-c3c[nH]nn3)nc21

Ki [1]: 8 nM
Vd [2]: 6.8 L/kg
Drug metabolism [3]: metabolite_detected
Drug metabolism [4]: metabolite_detected
clearance [5]: 81 mL/min/kg
SMILES: CC1(C)OCc2c(Nc3n[nH]c4ccc(F)cc34)nc(-c3cn[nH]c3)nc21

inhibition [6]: -4%
solubility kinetic [7]: 3 µM (≈ 1.3 µg/mL)
inhibition [8]: 4.5%
inhibition [9]: -4.5%
inhibition [10]: 91.8%
inhibition [11]: 96.4%
inhibition [12]: 38.1%
fAUC [13]: 0.09 µM·h
IC50 [14]: 370 nM
Ki [15]: 6.5 nM
inhibition [16]: 47.6%
Ki [1]: 9 nM
inhibition [17]: 38.4%
Ki [18]: 1.7 nM
inhibition [19]: 97%
Drug excretion [20]: metabolite_detected
Vd [2]: 3.3 L/kg
inhibition [21]: 90.8%
AUC [22]: 3.4 µM·h
Ki [23]: 3.4 nM
Drug excretion [24]: metabolite_detected
efflux ratio [25]: 0.7
Drug excretion [26]: metabolite_detected
bioavailability [27]: 62%
Papp A→B [28]: 8.4 ×10⁻⁶ cm/s
Drug excretion [29]: metabolite_detected
inhibition [30]: 85.7%
inhibition [31]: 1.9%
inhibition [32]: 15.3%
clearance [5]: 36 mL/min/kg
inhibition [33]: 10.1%
Ki [34]: 2.5 nM
inhibition [35]: 2.7%
inhibition [36]: 6.9%
inhibition [37]: -7%
SMILES: CC1(C)OCc2c(Nc3n[nH]c4c(Cl)cccc34)nc(-c3cn[nH]c3C(F)F)nc21

fAUC [13]: 0.23 µM·h
IC50 [14]: 3000 nM
Ki [15]: 1.1 nM
Ki [1]: 34.3 nM
Ki [18]: < 0.5 nM
Vd [2]: 2.3 L/kg
AUC [22]: 7.5 µM·h
Ki [23]: < 0.5 nM
efflux ratio [25]: 0.9
bioavailability [27]: 117%
Papp A→B [28]: 12.9 ×10⁻⁶ cm/s
clearance [5]: 38 mL/min/kg
Ki [34]: 21.3 nM
SMILES: Cn1nccc1-c1nc(Nc2n[nH]c3ccccc23)c2c(n1)C(C)(C)OC2

Ki [1]: 104 nM
SMILES: CC1(C)OCc2c(C(=O)c3n[nH]c4ccccc34)nc(-c3cn[nH]c3)nc21

Ki [1]: > 2000 nM
Vd [2]: 1.2 L/kg
efflux ratio [25]: 1.5
Papp A→B [28]: 10.3 ×10⁻⁶ cm/s
clearance [5]: 91 mL/min/kg
SMILES: CC1(C)OCc2c(Nc3n[nH]c4cc(C(F)(F)F)ccc34)nc(-c3cn[nH]c3)nc21

solubility kinetic [7]: 3 µM (≈ 1.25 µg/mL)
fAUC [13]: 0.03 µM·h
Ki [1]: 134 nM
Vd [2]: 2.4 L/kg
AUC [22]: 0.36 µM·h
Drug metabolism [3]: metabolite_detected
efflux ratio [25]: 1.3
bioavailability [27]: 5%
Papp A→B [28]: 8.5 ×10⁻⁶ cm/s
Drug metabolism [4]: metabolite_detected
clearance [5]: 27 mL/min/kg
SMILES: CC1(C)OCc2c(Nc3n[nH]c4c(C(F)(F)F)cccc34)nc(-c3cn[nH]c3)nc21

Ki [1]: 3 nM
SMILES: CC1(C)OCc2c(Nc3n[nH]c4c(F)cccc34)nc(-c3cn[nH]c3)nc21

Ki [1]: 10.4 nM
SMILES: CC1(C)OCc2c(Nc3n[nH]c4c(F)cc(F)cc34)nc(-c3cn[nH]c3)nc21

Ki [1]: 57 nM
Vd [2]: 1.5 L/kg
clearance [5]: 60 mL/min/kg
SMILES: Cn1nc(Nc2nc(-c3cn[nH]c3)nc3c2COC3(C)C)c2cccc(F)c21

Ki [1]: > 2000 nM
SMILES: CC1(C)OCc2c(Nc3n[nH]c4c3CCCC4)nc(-c3cn[nH]c3)nc21

Ki [1]: 4 nM
Vd [2]: 5.5 L/kg
efflux ratio [25]: 1.1
Papp A→B [28]: 7.3 ×10⁻⁶ cm/s
clearance [5]: 60 mL/min/kg
SMILES: CC1(C)OCc2c(Nc3n[nH]c4c(Cl)c(F)ccc34)nc(-c3cn[nH]c3)nc21

Ki [1]: 16 nM
SMILES: CC1(C)OCc2c(Nc3n[nH]c4c(Cl)cc(F)cc34)nc(-c3cn[nH]c3)nc21
